According to paper PMC11361989, “A simple HPLC–MS/MS method for the determination of polymyxin B in human plasma and its application in the pharmacokinetic study in elderly patients infected with multidrug-resistant Gram-negative bacteria” (Frontiers in Pharmacology, 2024):

Legend:
[1] = population PK, elderly patients; ref Wang et al., 2022; cited from earlier work
Description: Compared to the administration of a fixed dose of PB, the administration of a body-weight-based dose of PB increases the efficacy of the antibiotic ([Sandri et al., 2013]; [Miglis et al., 2018]; [Tsuji et al., 2019]; [Wang et al., 2021a]). However, clinicians usually administer a fixed dose of PB due to challenges in obtaining accurate body weight information about critically ill patients. Moreover, fixed loading and maintenance doses of polymyxin B appear more appropriate than weight-based dosing regimens in patients within the 45–90-kg BW range ([Hanafin et al., 2023]). This study is the fir ...

[2] = Pharmacokinetic study of intravenous PB in elderly patients infected with multidrug-resistant Gram-negative bacteria; assay type: in vivo, human; settings: for AUCss, 24 h: elderly patients, steady state, first-order elimination-based equation, mean ± SD; for Ctrough: human, in vivo
Description: This study was approved by the Medical Ethics Committee of Shandong Provincial Hospital (No. 2021–356). Written informed consent was obtained from all patients or their legal representatives. Herein, we included 14 elderly patients (65≤ Age ≤95) who received intravenous PB injections (polymyxin B sulfate for injection, Shanghai First Biochemical Pharmaceutical Co., Ltd.) in the period between April 2021 and January 2023 for treating infections caused by multidrug-resistant Gram-negative bacteria. These patients were divided into two groups: in the first group, eight patients received 100 mg loading dose combined with 75 mg maintenance dose q 12 h, and in the other group, six subjects received a 150-mg loading dose and a 100-mg maintenance dose q 12 h. The duration of the intravenous treatment was 1 h. The dosage for all patients was decided by the clinician according to the clinical response. Patients undergoing plasma exchange, continuous renal replacement therapy, or extracorporeal membrane oxygenation were excluded. Clinical and demographic data (age, gender, body weight, pathogens, infection sites, and PB-treatment history) were collected from electronic medical records. Laboratory data, including serum creatinine (Scr), estimated glomerular filtration rate (eGFR), and creatinine clearance (CrCL), were collected on the sampling day. CrCL was calculated using the Cockcroft–Gault equation. On the third day after the administration of the loading dose, blood samples were collected at pre-dose (0 h) and 0.5, 1, 2, 3, 6, 8, and 12 h after the start of administration using EDTA tubes and processed to obtain plasma samples. A total of 112 blood samples were collected and detected, and all of these were stored at −70°C. After analysis by the validated methods, PK parameters were calculated by non-compartmental analysis using Phoenix WinNonlin software 8.3 (Certara, United States).
After validation, the HPLC–MS/MS method was applied to the PK study of PB in elderly patients infected with multidrug-resistant Gram-negative bacteria. A total of 112 blood samples were collected from 14 elderly patients receiving intravenous PB treatment. […] The concentration of PB is the sum of the concentrations of PB1 and PB2 calculated, and it is based on the formula provided by [Liu et al. (2023)]. The individual AUCss, 24 h values were estimated using the first-order elimination-based equation method ([Begg et al., 1995]; [Pai et al., 2014]; [Liu et al., 2023]).

[3] = Kidney function indicators (Scr, eGFR) during PB therapy; assay type: in vivo, human; settings: elderly patients, 100-mg maintenance dose, after an average of 3.83 days
Description: This study was approved by the Medical Ethics Committee of Shandong Provincial Hospital (No. 2021–356). Written informed consent was obtained from all patients or their legal representatives. Herein, we included 14 elderly patients (65≤ Age ≤95) who received intravenous PB injections (polymyxin B sulfate for injection, Shanghai First Biochemical Pharmaceutical Co., Ltd.) in the period between April 2021 and January 2023 for treating infections caused by multidrug-resistant Gram-negative bacteria. […] CrCL was calculated using the Cockcroft–Gault equation. […] A total of 112 blood samples were collected and detected, and all of these were stored at −70°C. After analysis by the validated methods, PK parameters were calculated by non-compartmental analysis using Phoenix WinNonlin software 8.3 (Certara, United States).
The recommended AUCss, 24 h range of PB, which is based on the therapeutic window of the drug, is between 50 and 100 μg h/mL ([Tsuji et al., 2019]; [Liu et al., 2023]). […] To avoid the MS/MS crosstalk among the above-mentioned analytes undermining their detection sensitivity and quantitative accuracy, each analyte should be quantified with satisfactory chromatographic separation. […] However, crosstalk still should be measured in a high concentration level. […]

[4] = Stability of PB1 and PB2 in human plasma under different storage conditions; settings: human plasma: 24 h at room temperature (25°C), 24 h at 4°C (post preparative), three freeze–thaw cycles, 85 days at −70°C
Description: The stock solutions of the calibrators and quality control (QC) samples should be prepared separately in the same way. The PB stock solution for calibrators and QC samples was prepared in water (1% FA) at 400.48 μg/mL for PB1 and 40.84 μg/mL for PB2. Consequently, working solutions for construction of calibrators and QC were prepared by serially diluting the stock solution with a 1% aqueous solution of FA. The concentrations of the working solutions for calibrators were 10.01, 30.03, 50.05, 100.12, 150.18, and 200.24 μg/mL for PB1 and 1.02, 3.06, 5.10, 10.21, 15.31, and 20.42 μg/mL for PB2. The concentrations of working solutions for QCs were prepared at 20.02 μg/mL (LQC), 90.11 μg/mL (MQC), and 180.22 μg/mL (HQC) for PB1 and 2.04 μg/mL (LQC), 9.18 μg/mL (MQC), and 18.36 μg/mL (HQC) for PB2. The working solution of IS (10.00 μg/mL) was prepared using methanol. All the above solutions were stored at −70°C. The calibrators and QC samples were obtained by spiking 90 μL of blank plasma with 10 μL of working solution at the corresponding concentration. The standard curves were in the range of 1.00–20.02 μg/mL and 0.10–2.04 μg/mL for PB1 and PB2, respectively.
Typically, 100 μL of the plasma sample was mixed with 10 μL IS working solution, and then, 300 μL 0.1% FA in methanol was added to the sample for protein precipitation. The mixture was vortexed for 3 min and centrifuged in an Eppendorf 5415D microcentrifuge (Eppendorf, Hamburg, Germany) at 11,000 g rpm for 10 min. Subsequently, 200 μL of the supernatant was transferred into a clean polypropylene tube and diluted with 150 μL of 0.1% FA in water. The mixture solution was vortexed for 3 min and centrifuged at 11,000 rpm for 10 min using the same centrifuge. Finally, 200 μL of the supernatant was transferred into an injection bottle, and 10 μL was injected into the HPLC–MS/MS for analysis.
The stability of the working solutions of PB1 and PB2 was evaluated. The short-term stability and long-term stability of PB1 and PB2 in human plasma were evaluated under the following conditions: placed at room temperature or 4°C for 24 h, frozen and thawed three times, and stored at −70°C for 85 days. The stability evaluation was conducted for both LQC and HQC concentrations.

Polymyxin B [PB]
typical value of CL [1]: 1.87 L/h
AUCss, 24 h ([2]; maintenance 75 mg q12h, n = 8): 117.70 ± 37.03 µg·h/mL
AUCss, 24 h ([2]; maintenance 100 mg q12h, n = 6): 152.73 ± 70.09 µg·h/mL
Ctrough ([2]; 75 mg): 2650 ± 1320 ng/mL
Ctrough ([2]; 100 mg): 3400 ± 1870 ng/mL
mean Scr value during therapy [3]: 111.82 µmol/L
mean eGFR value during therapy [3]: 66.00 mL/min
Stability in human plasma (in words) [4]: stable
